From US20120034165A1, “IMAGING THE CENTRAL NERVOUS SYSTEM WITH PURINERGIC P2X7 RECEPTOR BINDING AGENTS” (priority 2009, published 2012)

Target: T1, P2X7 receptor (Homo sapiens, UniProt Q99572)
T1 construct: expressed in transfected cells; host or cells: HEK.293 cells, transient transfection with Lipofectamine LTX
T1 sequence (Q99572 1-595): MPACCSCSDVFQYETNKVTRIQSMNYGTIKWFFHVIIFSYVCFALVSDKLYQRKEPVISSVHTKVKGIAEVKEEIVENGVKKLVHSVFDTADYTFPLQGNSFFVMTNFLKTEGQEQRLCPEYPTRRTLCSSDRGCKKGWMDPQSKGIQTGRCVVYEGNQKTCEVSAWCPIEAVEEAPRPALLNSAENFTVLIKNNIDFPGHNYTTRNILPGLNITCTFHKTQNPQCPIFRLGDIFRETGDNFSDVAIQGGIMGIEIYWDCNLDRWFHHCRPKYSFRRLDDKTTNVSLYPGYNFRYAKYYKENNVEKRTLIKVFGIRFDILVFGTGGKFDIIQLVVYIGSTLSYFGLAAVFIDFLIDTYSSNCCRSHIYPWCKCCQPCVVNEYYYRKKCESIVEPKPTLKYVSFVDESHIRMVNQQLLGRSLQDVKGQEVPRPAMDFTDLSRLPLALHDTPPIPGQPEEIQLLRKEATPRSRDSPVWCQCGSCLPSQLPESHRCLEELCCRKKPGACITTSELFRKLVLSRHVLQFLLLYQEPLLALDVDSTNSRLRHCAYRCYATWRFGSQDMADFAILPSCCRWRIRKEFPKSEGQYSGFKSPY
Assay: Pore-forming (Yo Pro-1 dye uptake) assay in P2X7 transfected HEK.293 cells, Bz-ATP agonist
Format: cell-based
Conditions: Bz-ATP 30 μM, Yo Pro-1 1 μM, triplicate
Description: A non-radioactive analogue of the Imaging Agent illustrated in Table I was screened in a P2X7 receptor functional assay. This assay is described in Example 3 and is based upon the ability of the P2X7 receptor to form a non-selective pore in P2X7 transfected HEK.293 cells upon activation with an agonist, thereby allowing dye to permeate the cells. The non selective P2X channel antagonist used as a reference inhibitor for the evaluation of the non-radioactive compound of the invention was pyridoxal-phosphate-6-azophenyl-2′,4′-disulfonate (PPADS), and the results of the assay are provided in Table I above.
The assay method used was based on the ability of the DNA binding dye, Yo Pro-1 (quinolinium, 4[3-methyl-2(3H)-benzoxazolylidene)methyl]-1-[3-(trimethyl-ammonio)propyl]-dioxide) to enter through the dilated or “large pore form” of the P2X7 receptor and to bind to intracellular DNA/RNA whereupon it increases fluorescence intensity. Yo Pro-1 was therefore used to quantify inhibition of P2X7 function. This assay was based on the methods published by Michel et al., (B.J. Pharmacol 1998; 125: 1194-1201).
Initially, HEK.293 cells were transiently transfected using LipofectamineTMLTX (Invitrogen) for 72 hrs with P2X7 cDNA. 48 hours prior to use the cells were seeded into poly-D-lysine coated 96-well black-walled, clear bottomed plates, at a density of 30,000 cells/well. Stock solutions of test compound were prepared at a concentration of 40 mM in 100% DMSO.
Following the 48 hour incubation the culture medium was removed from the transfected cells, the cells were washed once and placed in pre-warmed sucrose assay buffer (Sucrose: 280 mM, KCL 5 mM, CaCl2: 0.5 mM, glucose: 10 mM, HEPES: 10 mM, N-methyl-D-glucamine: 10 mM; pH7.4). […] The fluorescence was then read at 485 nm excitation and 530 nm emission.
The non-selective P2X channel antagonist pyrdoxalphosphate-6-azophenyl-2′4′-disulphonic acid (PPADS) was used as a reference inhibitor in the assay. […] For each compound data set, a percentage inhibition value was calculated based on the three assay points generated.

Row | Structure (SMILES) | % inhibition (test compound at 10 μM) [%] | % inhibition (test compound at 100 μM (so in the source)) [%]
1 | Cc1nc(N=Nc2ccc(S(=O)(=O)O)cc2S(=O)(=O)O)c(COP(=O)(O)O)c(C=O)c1O [PPADS, pyridoxal-phosphate-6-azophenyl-2′,4′-disulfonate, reference compound] | 70 | 
2 | Oc1ccccc1CNc1ncnn1-c1cccc(Cl)c1Cl [imaging agent 1] | 77.0 | 68.0
